The numbers were not newly measured in patent US7214387B2, “Sustained release formulations of metformin” (Penwest Pharmaceuticals Company, priority 2002, dated 2007), which cites them from elsewhere.

The data set relates to serum lipids.

`CN(C)C(=N)NC(=N)N` [metformin, N,N-dimethylimidodicarbonimidicdiamide]: the “effects on other lipid levels” value (clinical studies) was “no adverse effects”. Also, the “mean fasting serum triglycerides, total cholesterol, and LDL cholesterol levels” value (particularly when baseline lipid levels were abnormally elevated) is on record as “lowered”.
